Source: patent US11503826B2, “Low volatility auxin herbicide formulations” (priority 2009, dated 2022)
Counter-ions that a name gives are not always drawn. Like-named read-outs stand apart in the source and are kept apart here.

Legend:
[1] = Aqueous solubility of dicamba acid and dicamba salts; conditions: for Comments (crystal formation): dicamba salt solutions; for solubility 20° C. a.e. / solubility 20° C. a.i.: equilibrated 5 to 7 days at 20° C.; for solubility 20° C. a.e.: 0.45 micron filter, HPLC; for aqueous solubility wt % a.i. @20° C.: dicamba salts
From the text: The solution was then passed through a 0.45 micron filter and assayed by HPLC for soluble dicamba.

[2] = assay type: physicochemical
Procedure: In a further set of experiments, measurements of dicamba concentration in the gas phase (air) above 38.5 wt % a.e. solutions of various dicamba salts was measured. 5 mL of each sample of dicamba was placed into a 50 mL plastic centrifuge tube with four holes approximately ⅛ in diameter drilled into the tube at the 10 mL line. A 22 mm×30 mm PUF (SKC ct. #226-124) was placed into a glass tube of app. 20 mm diameter with parafilm wrapped around the outside to obtain a snug fit into the top of the centrifuge tube. A hose was connected to the other end of the glass tube leading to a vacuum line. The air flow was regulated to app. 2 L/min using a flow controller (about 0.4 L air/min-mL sample). Air was pulled through the tube at […] for approximately 1 day. Note that the air conditions of flow rate, temperature, pressure and composition (e.g., relative humidity) are not narrowly critical as long as the various samples are analyzed under similar conditions. For instance, air at from about 5° C. to about 40° C., from about 0.5 to about 1.5 bar pressure, from about 0% to about 95% relative humidity, and at a flow rate of from about 0.1 to 10 L/min-mL sample could be suitably used for volatility analysis. The PUF was removed from the glass tube, extracted with 20 mL methanol and the resulting solution analyzed for dicamba concentration by LC-MS. The results are shown in Table 4i below where “wt % a.e.” refers to the dicamba concentration, “μg/mL” refers to the dicamba concentration in the distillate, “μg dicamba” refers to the total dicamba extracted from the PUF by 20 mL methanol, and “ng/L air” and “moles/L air” refer to the dicamba concentration in the gas phase above the solution.

[3] = Distillation volatility: dicamba in distillate by HPLC/MS; assay type: physicochemical; conditions: for ppm Dicamba in distillate: Table 4h summary, 5% a.e. salt solution
Procedure: The pH was measured on a standard Orion Model 320 pH meter of each neat solution.
Simple distillation using a short path still was used to collect the water distillate containing the dicamba in the vapor phase of the salt solutions. A 50 mL distillation flask was used. The distillation receiver was a “cow” type with four 2 mL graduated sections. The solutions were heated at the 30% setting of the GlassCol heating unit and the boiling point of each distillation was noted. The first 2 ml of distillate was collected, and the receiver rotated to avoid collection of any further distillate in that section as the distillation flask cooled. The 2 mL sample was quantitatively transferred by pipette to HPLC vials for later analysis. Between each distillation the distillation apparatus was washed with 10 volumes of tap water, 10 volumes of distilled water, rinsed with acetone, and dried in a 60° C. oven. Each distillation was run in triplicate.
The distillate was collected and analyzed for dicamba concentration using HPLC/Mass Spectroscopy (MS). The HPLC column was an Agilent Zorbax Eclipse XDB-C8, 4.6×150 mm, 5u, PN 993967-90. Mobile phase A was 0.1% formic acid in D.I. water. Mobile phase B was 0.1% formic acid in acetonitrile. A flow rate of 1.2 mL/min was used and an injection volume of 5, 10, 15 or 25 ul was used depending on the dicamba level in the sample. The following gradient was used: […]
The MS parameters were as follows: Type SIR; ES-ion mode; 0.05 second inter channel delay; 0.05 second interscan time; 0.5 span (Da); 10 minutes elapsed time; and 6-6000 ppb calibration range. […] Channel 2 mass was 177 (Da); Dwell was 0.25(s); Cone(V)=tune and; 0.05(s) delay.

[4] = Tank mix compatibility of dicamba salts with potassium glyphosate; assay type: physicochemical; conditions: for g to crystals: grams dicamba a.e. (35.8% a.e. salt solution) added to […] Roundup POWERMAX solution to induce crystallization or precipitation; for Comment: dicamba salt solution added to […] Roundup POWERMAX solution
From the text: The weight of the dicamba solution that caused precipitation was noted. The results are reported in Table 12a below where “salt” refers to the dicamba salt and “g to crystals” refers to the total amount of grams of dicamba a.e. that were required to induce crystallization or precipitation of crystals.

eyes of rabbit = system: eyes of rabbit
Procedure: Eye irritation measurement can be done according to the methods provided in U.S. Environmental Protection Agency Office of Prevention, Pesticides and Toxic Substances, Health Effects Test Guidelines (for example, OPPTS 870.2400 Acute Eye Irritation, August 1998).
The eye irritation potential of an aqueous formulation of the present invention was evaluated. […] Eye irritation testing was done according to the methods provided in U.S. Environmental Protection Agency Office of Prevention, Pesticides and Toxic Substances, Health Effects Test Guidelines: OPPTS 870.2400 Acute Eye Irritation. The eyes of 3 rabbit animals were treated with the formulation and were scored for effects on the cornea, iris, and conjunctivae (redness, swelling and discharge).

[5] = 20° C.; 'is believed to have'; cited from earlier work
[6] = 5% a.e. DMA Dicamba solution
[7] = 5 mL sample, air pulled through tube over PUF approximately 1 day, wt % a.e.: salts 35.8, BANVEL 40, acid 99
[8] = 38.5 wt % a.e. solutions (Table 4i)
[9] = Table 10a, dicamba salt, acid equivalent

Structure (SMILES): COc1c(Cl)ccc(Cl)c1C(=O)O [Dicamba acid, 3,6-dichloro-2-methoxybenzoic acid]
- aqueous solubility Approximate g a.e./L @20° C. ([1]; listed as acid): 4.5 g a.e./L
- aqueous solubility wt % a.e. @20° C. ([1]; listed as acid): 0.4 wt % a.e.
- aqueous solubility wt % a.e. @20° C. ([1]; Table 10b, second experiment, dicamba acid and salts, listed as acid): 0.4 wt % a.e.
- dicamba [2, 7]: 15.3 µg/mL
- dicamba concentration in gas phase, moles/L air [2, 7]: 1.92 × 10^−10 moles/L air
- dicamba concentration in gas phase, ng/L air [2, 7]: 42.4 ng/L air
- μg dicamba [2, 7]: 305.4 µg

Structure (SMILES): COc1c(Cl)ccc(Cl)c1C(=O)O [Dicamba sodium salt, reference compound]
- Mean Dicamba in Distillate ([3]; 1% a.e. dicamba, solution pH 3.31): 3.42 ppm
- Mean Dicamba in Distillate ([3]; 1% a.e. dicamba, solution pH 4.25): 0.70 ppm
- Mean Dicamba in Distillate ([3]; 1% a.e. dicamba, solution pH 6.19): 0.13 ppm
- Mean Dicamba in Distillate ([3]; 1% a.e. dicamba, solution pH 9.82): 0.09 ppm
- Mean Dicamba in Distillate ([3]; 1% a.e. dicamba, solution pH 11.15): 0.06 ppm
- Mean Dicamba in Distillate ([3]; 2% a.e. dicamba, solution pH 3.33): 5.74 ppm
- Mean Dicamba in Distillate ([3]; 2% a.e. dicamba, solution pH 4.29): 1.39 ppm
- Mean Dicamba in Distillate ([3]; 2% a.e. dicamba, solution pH 6.28): 0.32 ppm
- Mean Dicamba in Distillate ([3]; 2% a.e. dicamba, solution pH 9.93): 0.16 ppm
- Mean Dicamba in Distillate ([3]; 2% a.e. dicamba, solution pH 11.50): 0.15 ppm
- Mean Dicamba in Distillate ([3]; 5% a.e. dicamba, solution pH 3.36): 11.57 ppm
- Mean Dicamba in Distillate ([3]; 5% a.e. dicamba, solution pH 4.34): 2.36 ppm
- Mean Dicamba in Distillate ([3]; 5% a.e. dicamba, solution pH 6.32): 0.77 ppm
- Mean Dicamba in Distillate ([3]; 5% a.e. dicamba, solution pH 10.36): 0.45 ppm
- Mean Dicamba in Distillate ([3]; 5% a.e. dicamba, solution pH 12.15): 0.22 ppm
- ppm Dicamba in distillate ([3]; pH 6.32): 0.8 ppm
- aqueous solubility Approximate g a.e./L @20° C. ([1]; listed as sodium salt): 364 g a.e./L
- aqueous solubility wt % a.e. @20° C. ([1]; listed as sodium salt): 36.3 wt % a.e.
- crystal formation on drying on a glass surface ([1]; Example 10): formed crystals very readily
- Comments (crystal formation) ([1]; Table 10a, listed as Na): Crystals form easily
- solubility 0° C. a.e. ([1]; Table 10a, dicamba salt, equilibrated 5 to 7 days at 0° C., acid equivalent, listed as Na): 33 wt %
- solubility 0° C. a.i. ([1]; Table 10a, dicamba salt, equilibrated 5 to 7 days at 0° C., active ingredient, listed as Na): 36.3 wt %
- solubility 20° C. a.e. ([1]; Table 10a, dicamba salt, acid equivalent, listed as Na): 36.3 wt %
- solubility 20° C. a.i. ([1]; Table 10a, dicamba salt, active ingredient, listed as Na): 40.3 wt %
- aqueous solubility wt % a.e. @20° C. ([1]; Table 10b, second experiment, dicamba acid and salts, listed as sodium salt): 36.3 wt % a.e.
- aqueous solubility wt % a.i. @20° C. ([1]; Table 10b, second experiment, listed as sodium salt): 40.3 wt % a.i.
- crystallization in the presence of potassium glyphosate ([4]; 35.8% a.e. dicamba salt solution added to […] Roundup POWERMAX solution): induced crystallization
- g to crystals [4]: 13.6 g

Structure (SMILES): COc1c(Cl)ccc(Cl)c1C(=O)O.NCCO [Dicamba MEA salt]
- time after treatment at which all eyes were free of positive scores (eyes of rabbit; 61 wt % a.e., pH 8.5): 7 days
- time by which all eyes were free of all irritation (eyes of rabbit; 61 wt % a.e., pH 8.5): ≤ 10 days
- eye irritation rating in words (eyes of rabbit; Example 16: 61 wt % a.e. aqueous MEA dicamba, pH 8.5, 3 rabbits, b51: concentrate formulations at pH about 8): moderately irritating
- ocular findings in all treated eyes (eyes of rabbit; within 24 hours after treatment, 61 wt % a.e., pH 8.5): corneal opacity, iritis and conjunctivitis
- aqueous solubility wt % a.e. @20° C. ([1]; Table 10b, second experiment, dicamba acid and salts): 66.1 wt % a.e.
- aqueous solubility wt % a.i. @20° C. ([1]; Table 10b, second experiment): 84.4 wt % a.i.
- crystal formation from concentrated salt solution ([1]; solubility experiment, Example 10): did not form crystals
- dicamba concentration in the gas phase above the solution, comparison [2, 8]: lower than the acid or the sodium, potassium and DMA salts
- gas concentration, times less than the commercial product BANVEL [2, 8]: ~20 times

Structure (SMILES): NCCO [MEA]
- ppm Dicamba in distillate ([3]; pH 6.87): 0.5 ppm
- ppm Dicamba in distillate ([3]; pH 8.03): 0.3 ppm
- solubility 20° C. a.e. [1, 9]: >71.9 wt %
- solubility 20° C. a.i. ([1]; Table 10a, dicamba salt, active ingredient): >91.8 wt %
- Comment [4]: Clear solution, no precipitate
- g to crystals [4]: >34.2 g

Structure (SMILES): CNC.COc1c(Cl)ccc(Cl)c1C(=O)O [Dicamba DMA salt]
- solubility g a.e./L [5]: ~600 g a.e./L
- solubility wt % a.e. [5]: about 45 wt % a.e.
- pH Solution After Distillation ([6]; starting solution pH 3.60): 3.58
- ppm DMA in Distillate ([6]; starting solution pH 3.60): Undetectable
- pH Solution After Distillation ([6]; starting solution pH 8.20): 7.04
- ppm DMA in Distillate ([6]; starting solution pH 8.20): 400 ppm
- pH Solution After Distillation ([6]; starting solution pH 10.10): 6.4
- ppm DMA in Distillate ([6]; starting solution pH 10.10): 5000 ppm
- amine in the distillate by HPLC analysis ([6]; acidic pH (3.6)): no detectable amine

Structure (SMILES): NCCOCCO [DGA]
- Mean Dicamba in Distillate ([3]; 1% a.e. dicamba, solution pH 4.23): 0.46 ppm
- Mean Dicamba in Distillate ([3]; 1% a.e. dicamba, solution pH 6.48): 0.18 ppm
- Mean Dicamba in Distillate ([3]; 1% a.e. dicamba, solution pH 8.24): 0.13 ppm
- Mean Dicamba in Distillate ([3]; 1% a.e. dicamba, solution pH 8.88): 0.12 ppm
- Mean Dicamba in Distillate ([3]; 2% a.e. dicamba, solution pH 4.17): 1.10 ppm
- Mean Dicamba in Distillate ([3]; 2% a.e. dicamba, solution pH 6.44): 0.31 ppm
- Mean Dicamba in Distillate ([3]; 2% a.e. dicamba, solution pH 8.22): 0.28 ppm
- Mean Dicamba in Distillate ([3]; 2% a.e. dicamba, solution pH 8.92): 0.19 ppm
- Mean Dicamba in Distillate ([3]; 5% a.e. dicamba, solution pH 4.57): 2.11 ppm
- Mean Dicamba in Distillate ([3]; 5% a.e. dicamba, solution pH 6.35): 0.75 ppm
- Mean Dicamba in Distillate ([3]; 5% a.e. dicamba, solution pH 8.26): 0.58 ppm
- Mean Dicamba in Distillate ([3]; 5% a.e. dicamba, solution pH 9.03): 0.32 ppm
- ppm Dicamba in distillate ([3]; pH 6.35): 0.8 ppm
- ppm Dicamba in distillate ([3]; pH 8.26): 0.6 ppm
- Comments (crystal formation) ([1]; Table 10a): Crystals formed slowly
- solubility 20° C. a.e. [1, 9]: <50 wt %
- Comment [4]: CLARITY-clear solution with no
- g to crystals [4]: >17 g
